Structures can show the parent of a compound that is named as a salt. Where two headings read alike, the source gives them in different places.
Test system: Acinetobacter baumannii ATCC17961
Assay: Antimicrobial susceptibility testing: 90% growth inhibitory concentration (IC90) determination in Iso-Sensitest broth, OD600 growth
Format: cell-based
In short: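 OD600 read every 20 min for 16 h at 35±2° C; inhibition taken in log phase to derive IC90. Twofold, 10-point dilutions (e.g. 50–0.097 μM final), inoculum ~5×10^(5) CFU/ml.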

[1] = Acinetobacter baumannii, ATCC17961, 16 h, strain ATCC 17961, OD600 growth over 16 h, read-out: A. baumannii ATCC 17961 IC90
[2] = Acinetobacter baumannii, ATCC17961, 16 h, read-out: A. baumannii ATCC 17961 IC90 (uM), strain ATCC 17961, OD600 growth over 16 h
[3] = strain ATCC 17961, OD600 growth over 16 h, read-out: A. baumannii ATCC 17961 IC90

| IC90 [1] [µM] | SMILES | also measured |
| --- | --- | --- |
| 0.235 | CCc1cc(Nc2nccn3c(-c4cn(CC(F)F)nc4C(F)(F)F)cnc23)ccc1C(=O)NCC(=O)NCC1CCNC1 (stereo not shown) [Example 549, 4-[[3-[1-(2,2-difluoroethyl)-3-(trifluoromethyl)pyrazol-4-yl]imidazo[1,2-a]pyrazin-8-yl]amino]-2-ethyl-N-[2-oxo-2-(pyrrolidin-3-ylmethylamino)ethyl] benzamide formate] | – |
| 0.895 | CCc1cc(Nc2nccn3c(-c4cn(CC#N)nc4C(F)(F)F)cnc23)ccc1C(=O)NCC(=O)NCCN [Example 765, N-[2-(2-aminoethylamino)-2-oxo-ethyl]-4-[[3-[1-(cyanomethyl)-3-(trifluoromethyl)pyrazol-4-yl]imidazo[1,2-a]pyrazin-8-yl]amino]-2-ethyl-benzamide] | – |
| 0.374 | Cc1cc(Nc2nccn3c(-c4cn(CC(F)F)nc4C(F)(F)F)cnc23)cc(F)c1C(=O)N1CCN(C(=O)[C@@H]2C[C@@H](O)CN2)CC1 [Example 698, (4-(4-((3-(1-(2,2-difluoroethyl)-3-(trifluoromethyl)-1H-pyrazol-4-yl)imidazo[1,2-a]pyrazin-8-yl)amino)-2-fluoro-6-methylbenzoyl)piperazin-1-yl)((2S,4R)-4-hydroxypyrrolidin-2-yl)methanone] | – |
| 0.173 | CCc1cc(Nc2nccn3c(-c4cn(CC(F)F)nc4C(F)(F)F)cnc23)ccc1C(=O)NCCNC(=O)[C@H]1CC[C@@H](N)C1 [Example 495, N-(2-((1S,3R)-3-aminocyclopentane-1-carboxamido)ethyl)-4-((3-(1-(2,2-difluoroethyl)-3-(trifluoromethyl)-1H-pyrazol-4-yl)imidazo[1,2-a]pyrazin-8-yl)amino)-2-ethylbenzamide formate] | – |
| 2.36 | CCc1cc(Nc2nccn3c(-c4cn(CC#N)nc4C(F)F)cnc23)ccc1C(=O)N1CCN(C(=O)[C@H](N)C(C)C)CC1 [Example 797, 2-(4-(8-((4-(4-(D-valyl)piperazine-1-carbonyl)-3-ethylphenyl)amino)imidazo[1,2-a]pyrazin-3-yl)-3-(difluoromethyl)-1H-pyrazol-1-yl)acetonitrile] | – |
| 0.969 | NC1CCC(NC(=O)c2ccc(Nc3nccn4c(-c5c[nH]nc5C(F)(F)F)cnc34)cc2Cl)CC1 (stereo not shown) [Example 385, N-(4-aminocyclohexyl)-2-chloro-4-[[3-[3-(trifluoromethyl)-1H-pyrazol-4-yl]imidazo[1,2-a]pyrazin-8-yl]amino]benzamide] | – |
| 0.284 | C#CCn1cc(-c2cnc3c(Nc4cc(C)c(C(=O)N[C@H](C)CN)c(F)c4)nccn23)c(C(F)(F)F)n1 [Example 662, (R)-N-(1-aminopropan-2-yl)-2-fluoro-6-methyl-4-((3-(1-(prop-2-yn-1-yl)-3-(trifluoromethyl)-1H-pyrazol-4-yl)imidazo [1,2-a]pyrazin-8-yl)amino)benzamide] | – |

More lines, now with the values behind:

| SMILES | IC90 [1] [µM] | also measured |
| --- | --- | --- |
| CCc1cc(Nc2nccn3c(-c4cn(CCF)nc4C(F)(F)F)cnc23)ccc1C(=O)N1CCC(CN)CC1 [Example 62, [4-(aminomethyl)piperidin-1-yl]-[2-ethyl-4-[[3-[1-(2-fluoroethyl)-3-(trifluoromethyl)pyrazol-4-yl]imidazo[1,2-a]pyrazin-8-yl]amino]phenyl] methanone] | 0.242 | – |
| N#CCn1cc(-c2cnc3c(Nc4ccc(C(=O)N5CCN(C(=O)[C@@H]6CCNC6)CC5)c(Cl)c4)nccn23)c(C(F)(F)F)n1 [Example 191, 2-[4-[8-[3-chloro-4-[4-[(3R)-pyrrolidine-3-carbonyl]piperazine-1-carbonyl]anilino]imidazo[1,2-a]pyrazin-3-yl]-3-(trifluoromethyl)pyrazol-1-yl]acetonitrile] | 0.276 | – |
| CCc1cc(Nc2nccn3c(-c4cn(C5COC5)nc4C(F)(F)F)cnc23)ccc1C(=O)NCCOCCN [Example 241, N-[2-(2-aminoethoxy)ethyl]-2-ethyl-4-[[3-[1-(oxetan-3-yl)-3-(trifluoromethyl)pyrazol-4-yl]imidazo[1,2-a]pyrazin-8-yl]amino]benzamide formate] | – | IC90 [2]: 0.322 µM |
| CCc1cc(Nc2nccn3c(-c4cn(CC(C)(C)CO)nc4C(F)(F)F)cnc23)ccc1C(=O)NCCOCCN [Example 306, N-[2-(2-aminoethoxy)ethyl]-2-ethyl-4-[[3-[1-(3-hydroxy-2,2-dimethylpropyl)-3-(trifluoromethyl)pyrazol-4-yl]imidazo[1,2-a]pyrazin-8-yl]amino]benzamide formate] | – | IC90 [2]: 0.483 µM |
| Cc1cc(Nc2nccn3c(-c4cn(CC(F)F)nc4C(F)(F)F)cnc23)cc(F)c1C(=O)NCCOCCN [Example 49, N-[2-(2-aminoethoxy)ethyl]-4-[[3-[1-(2,2-difluoroethyl)-3-(trifluoromethyl)pyrazol-4-yl]imidazo[1,2-a]pyrazin-8-yl]amino]-2-fluoro-6-methylbenzamide] | 0.12 | – |
| C=CCn1cc(-c2cnc3c(Nc4cc(C)c(C(=O)NCCOCCN)c(F)c4)nccn23)c(C(F)(F)F)n1 [Example 51, N-[2-(2-aminoethoxy)ethyl]-2-fluoro-6-methyl-4-[[3-[1-prop-2-enyl-3-(trifluoromethyl)pyrazol-4-yl]imidazo[1,2-a]pyrazin-8-yl]amino] benzamide] | – | IC90 [3]: 0.13 µM |
| CCc1cc(Nc2nccn3c(-c4cn(CC#N)nc4C(F)(F)F)cnc23)ccc1C(=O)N[C@H](C)CN [Example 109, N-[(2R)-1-aminopropan-2-yl]-4-[[3-[1-(cyanomethyl)-3-(trifluoromethyl)pyrazol-4-yl]imidazo[1,2-a]pyrazin-8-yl]amino]-2-ethylbenzamide] | 0.333 | – |
| N#CCn1cc(-c2cnc3c(Nc4ccc(C(=O)N5CC(NC(=O)[C@@H]6C[C@@H](O)CN6)C5)c(Cl)c4)nccn23)c(C(F)(F)F)n1 [Example 173, (2S,4R)-N-[1-[2-chloro-4-[[3-[1-(cyanomethyl)-3-(trifluoromethyl)pyrazol-4-yl]imidazo[1,2-a]pyrazin-8-yl]amino]benzoyl]azetidin-3-yl]-4-hydroxypyrrolidine-2-carboxamide] | 1.11 | – |
| CCc1cc(Nc2nccn3c(-c4cn(C)nc4C(F)F)cnc23)ccc1C(=O)NCCOCCN [Example 347, N-[2-(2-aminoethoxy)ethyl]-4-[[3-[3-(difluoromethyl)-1-methylpyrazol-4-yl]imidazo[1,2-a]pyrazin-8-yl]amino]-2-ethylbenzamide] | 1.67 | – |
| C#CCNCCCNC(=O)c1c(C)cc(Nc2nccn3c(-c4cn(CC(F)F)nc4C(F)(F)F)cnc23)cc1F [Example 68, 4-[[3-[1-(2,2-difluoroethyl)-3-(trifluoromethyl)pyrazol-4-yl]imidazo[1,2-a]pyrazin-8-yl]amino]-2-fluoro-6-methyl-N-[3-(prop-2-ynylamino)propyl] benzamide] | – | IC90 [3]: 0.43 µM |
| C[C@@H](NC(=O)c1ccc(Nc2nccn3c(-c4c[nH]nc4C(F)(F)F)cnc23)cc1Cl)C(=O)N1CCNCC1 [Example 91, 2-chloro-N-[(2R)-1-oxo-1-piperazin-1-ylpropan-2-yl]-4-[[3-[3-(trifluoromethyl)-1H-pyrazol-4-yl]imidazo[1,2-a]pyrazin-8-yl]amino]benzamide formate] | – | IC90 [2]: 0.645 µM |
| N#CCn1cc(-c2cnc3c(Nc4ccc(C(=O)N5CCC(N)CC5)c(Cl)c4)nccn23)c(C(F)(F)F)n1 [Example 202, 2-[4-[8-[4-(4-aminopiperidine-1-carbonyl)-3-chloroanilino]imidazo[1,2-a]pyrazin-3-yl]-3-(trifluoromethyl)pyrazol-1-yl]acetonitrile] | 0.109 | – |

Reference: patent US20230203043A1, “NOVEL IMIDAZOPYRAZINE DERIVATIVES” (Hoffmann-La Roche Inc., priority 2020, published 2023)
